Experiments:
[1] = test system: acute myelocytic leukemia (AML) cell line MV4-11; test: Oncology cell growth assay (3-day proliferation, CellTiter-Glo); type: cell-based; settings: Homo sapiens, MV4-11, 72 h, MV4-11 cells, 3000 cells/well, compounds listed under IC50 range headings, read-out: MV411 IC50 (gIC50, inhibition of proliferation)
In short: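 Compounds were serially diluted 3-fold in DMSO, giving final well concentrations from 10 down to 0.0045 μM. MV4-11 cells were then seeded at 3000 cells/well in RPMI 1640 with 10% FBS and incubated 72 hours. CellTiter-Glo signal was measured and gIC50 obtained by four-parameter logistic regression.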

[2] = biological target: T1, BRD4 Bromodomain 1 (BRD4 BD1) (Homo sapiens, UniProt O60885); test: AlphaScreen binding assay, BRD4 BD1; settings: His-tagged BRD4 BD1 50 nM, biotinylated H4 (1-21) K5/8/12/16 tetra-acetylated peptide 50 nM, compounds listed under IC50 range headings
T1 construct: 44-168 and BRD4 BD2
In short: (§1)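 Compound dilution series were mixed with His-tagged BRD4 bromodomain and biotinylated tetra-acetylated H4 (1-21) peptide at pH 7.3 (BD1 and peptide at 50 nM, BD2 and peptide at 100 nM). Donor and acceptor beads were then added, and plates were equilibrated at least 1 h before reading. IC50 values were fitted with a four-parameter logistic model.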

[3] = biological target: T2, BRD4 Bromodomain 2 (BRD4 BD2) (Homo sapiens, UniProt O60885); test: AlphaScreen binding assay, BRD4 BD2; settings: His-tagged BRD4 BD2 100 nM, biotinylated H4 (1-21) K5/8/12/16 tetra-acetylated peptide 100 nM, compounds listed under IC50 range headings
T2 construct: 333-460 were cloned, expressed, and purified to homogeneity
In short: as §1

Row | IC50 [1] [nM] | IC50 [2] [nM] | IC50 [3] [nM] | Structure (SMILES)
1 | < 500 | 1000 to 10000 | 50 to 500 | CC(=O)N1c2ccc(-c3cnn(C4CCNCC4)c3)c(Oc3nccc(C(F)(F)F)n3)c2CC[C@@H]1C [I-514]
2 | 500 to 1000 | 1000 to 10000 | 50 to 500 | CC(=O)N1c2ccc(-c3cnn(C4CCNCC4)c3)c(Oc3ccnc(C(F)(F)F)n3)c2CC[C@@H]1C [I-515]
3 | 500 to 1000 | 1000 to 10000 | 50 to 500 | CC(=O)N1c2ccc(-c3cnn(C4CCNCC4)c3)c(Oc3cc(N4CCOCC4)ncn3)c2CC[C@@H]1C [I-516]
4 | < 500 | 1000 to 10000 | 50 to 500 | CC(=O)N1c2ccc(-c3cnn(C4CCNCC4)c3)c(Oc3cc(C4CC4)ncn3)c2CC[C@@H]1C [I-517]
5 | < 500 | 100 to 1000 | 50 to 500 | CC(=O)N1c2ccc(-c3cnn(C4CCNCC4)c3)c(Oc3ncc(C4CC4)cn3)c2CC[C@@H]1C [I-518]
6 | < 500 | 100 to 1000 | 50 to 500 | CC(=O)N1c2ccc(-c3cnn(C4CCNCC4)c3)c(Oc3ncc(C(F)(F)F)cn3)c2CC[C@@H]1C [I-519]
7 | > 1000 | 1000 to 10000 | 50 to 500 | CC(=O)N1c2ccc(-c3cnn(C4CCNCC4)c3)c(Oc3ncccc3C(N)=O)c2CC[C@@H]1C [I-520]
8 | < 500 | 100 to 1000 | < 50 | CC(=O)N1c2ccc(-c3cnn(C4CCNCC4)c3)c(Oc3ncc(C(F)(F)F)cc3F)c2CC[C@@H]1C [I-521]
9 | 500 to 1000 | 1000 to 10000 | 50 to 500 | COC(=O)c1ccc(Oc2c(-c3cnn(C4CCNCC4)c3)ccc3c2CC[C@H](C)N3C(C)=O)nc1 [I-522]
10 | > 1000 | 1000 to 10000 | 50 to 500 | CC(=O)N1c2ccc(-c3cnn(C4CCNCC4)c3)c(Oc3ccc(C(N)=O)cn3)c2CC[C@@H]1C [I-523]
11 | < 500 | 1000 to 10000 | 50 to 500 | COC(=O)N1c2ccc(-c3cnn(C4CCNCC4)c3)c(Oc3ccc(C(F)(F)F)cn3)c2CC[C@@H]1C [I-524]
12 | < 500 | 1000 to 10000 | 50 to 500 | COC(=O)N1c2ccc(-c3cnn(C4CCNCC4)c3)c(Oc3ncccn3)c2CC[C@@H]1C [I-525]
13 | < 500 | 1000 to 10000 | 50 to 500 | COC(=O)N1c2ccc(-c3cnn(C4CCNCC4)c3)c(Oc3cnccn3)c2CC[C@@H]1C [I-526]
14 | < 500 | 1000 to 10000 | 50 to 500 | COC(=O)N1c2ccc(-c3cnn(C4CCNCC4)c3)c(Oc3ncccc3C(F)(F)F)c2CC[C@@H]1C [I-527]
15 | < 500 | 1000 to 10000 | 50 to 500 | COC(=O)N1c2ccc(-c3cnn(C4CCNCC4)c3)c(Oc3nccc(C(F)(F)F)n3)c2CC[C@@H]1C [I-528]
16 | < 500 | 1000 to 10000 | 50 to 500 | COC(=O)N1c2ccc(-c3cnn(C4CCNCC4)c3)c(Oc3ccnc(C(F)(F)F)n3)c2CC[C@@H]1C [I-529]
17 | > 1000 | ≥ 10000 | ≥ 500 | COC(=O)N1c2ccc(-c3cnn(C4CCNCC4)c3)c(Oc3cc(N4CCOCC4)ncn3)c2CC[C@@H]1C [I-530]
18 | < 500 | 1000 to 10000 | 50 to 500 | COC(=O)N1c2ccc(-c3cnn(C4CCNCC4)c3)c(Oc3cc(C4CC4)ncn3)c2CC[C@@H]1C [I-531]
19 | 500 to 1000 | 1000 to 10000 | 50 to 500 | COC(=O)N1c2ccc(-c3cnn(C4CCNCC4)c3)c(Oc3ncc(C4CC4)cn3)c2CC[C@@H]1C [I-532]
20 | < 500 | 1000 to 10000 | 50 to 500 | COC(=O)N1c2ccc(-c3cnn(C4CCNCC4)c3)c(Oc3ncc(F)cn3)c2CC[C@@H]1C [I-533]
21 | 500 to 1000 | 1000 to 10000 | 50 to 500 | COC(=O)N1c2ccc(-c3cnn(C4CCNCC4)c3)c(Oc3ncc(C(F)(F)F)cn3)c2CC[C@@H]1C [I-534]
22 | < 500 | 1000 to 10000 | 50 to 500 | COC(=O)N1c2ccc(-c3cnn(C4CCNCC4)c3)c(Oc3ncc(C)cn3)c2CC[C@@H]1C [I-535]

Reference: patent US10611750B2, “Tetrahydroquinoline compositions as bet bromodomain inhibitors” (FORMA Therapeutics, Inc., priority 2013, dated 2020)
